Assay results from PMC10470053, “Diverse p120RasGAP interactions with doubly phosphorylated partners EphB4, p190RhoGAP, and Dok1” (The Journal of Biological Chemistry, 2023).
Square brackets hold non-standard residues; d marks the D form. Ends that are not written are not given here. Peptide text beside a SMILES is read from it. pY = N[C@@H](Cc1ccc(OP(=O)(O)O)cc1)C(=O)O

Test system: RasGAP^FL (full-length RasGAP) GAP activity toward H-Ras
Test: In vitro GAP assay, single turnover fluorescence-based phosphate sensor
Assay type: biochemical, human
Conditions: 50 μM peptide, 25 nM RasGAP^FL, 0.8 μM GTP-H-Ras, 1 μM phosphate sensor, 20 mM Tris pH 8, 50 mM NaCl; first 10 min after Mg2+; n = 4 to 14, Mann-Whitney
From the text: Finally, to probe whether the conformational movements in the SH2-SH3-SH2 region nonetheless impact catalytic activity in vitro, we conducted GAP assays. […] Our SAXS data for RasGAP^232 may provide a basis for how this is achieved: by inducing local changes in 232 conformations upon peptide engagement. Therefore, we purified full-length RasGAP (residues 1–1047, termed RasGAP^FL, Fig. S2G) and assessed activity against purified H-Ras GTPase domain preloaded with GTP (residues 1–167, Fig. S2H) in a single turnover fluorescence-based phosphate sensor assay that monitors phosphate release in real time ([64]). We find that RasGAP^FL activates H-Ras, as expected (Fig. 6) ([61], [62]). […]
Figure 6 In vitro GAP assays.A, GAP assay for full-length RasGAP activation of GTP-loaded H-Ras. […] Initial rates calculated for each reaction using only the first 10 min after addition of Mg^2+, where the phosphate release rate was linear. […]
H-Ras was preloaded with GTP by mixing purified H-Ras^1-167 protein, 10 mM EDTA, and 10-fold excess GTP in 20 mM Tris pH 8, 100 mM NaCl for 1 h at room temperature. […] Fluorescence excitation and emission settings were 430 nm and 450 nm, respectively with a bandwidth of 10 nm, and readings were taken in 1-min intervals. […]

Compound | effect of peptide on in vitro GAP activity (initial rate of phosphate release)
CC[C@H](C)[C@H](NC(=O)[C@H](CCCNC(=N)N)NC(=O)[C@H](CC(C)C)NC(=O)[C@H](CO)NC(=O)[C@H](CC(=O)O)NC(=O)[C@H](CC(C)C)NC(=O)[C@@H]1CCCN1C(=O)[C@H](CCC(=O)O)NC(=O)[C@H](C)NC(=O)[C@H](Cc1ccc(OP(=O)(O)O)cc1)NC(=O)[C@H](CC(C)C)NC(=O)[C@H](C)NC(=O)[C@@H]1CCCN1C(=O)[C@@H]1CCCN1C(=O)[C@H](CO)NC(C)=O)C(=O)N[C@@H](C)C(=O)N1CCC[C@H]1C(=O)N[C@@H](CS)C(=O)N1CCC[C@H]1C(=O)N[C@@H](CO)C(=O)N[C@@H](CCC(N)=O)C(=O)N[C@@H](CC(=O)O)C(=O)N[C@@H](CO)C(=O)N[C@@H](CC(C)C)C(=O)N[C@@H](Cc1ccc(OP(=O)(O)O)cc1)C(=O)N[C@@H](CO)C(=O)N[C@@H](CC(=O)O)C(=O)N1CCC[C@H]1C(=O)N[C@@H](CC(C)C)C(=O)N[C@@H](CC(=O)O)C(=O)N[C@@H](CO)C(=O)N[C@H](C(N)=O)[C@@H](C)O [pYpY Dok1] (Ac-SPPAL[pY]AEPLDSLRIAPCPSQDSL[pY]SDPLDST-NH2) | do not impact GAP activity
SD[pY]AEPMDAVVKPRNEEENI[pY]SVPH [pYpY p190RhoGAP-A, Doubly phosphorylated p190RhoGAP-A peptide (pY1087, pY1105)] | do not impact GAP activity
